# Assay results from ChEMBL document CHEMBL2073840, “Inhibitory effects of a cyclosporin derivative, SDZ PSC 833, on transport of doxorubicin and vinblastine via human P-glycoprotein” (Jpn J Cancer Res, 1998).
# Target: ATP-dependent translocase ABCB1 (Homo sapiens, UniProt P08183)
# Assay: TP_TRANSPORTER: transepithelial transport (basal to apical) in MDR1-expressing LLC-PK1 cells
# Format: functional, cell-based
# Conditions: pig
# Chain of ATP-dependent translocase ABCB1 (P08183 whole entry): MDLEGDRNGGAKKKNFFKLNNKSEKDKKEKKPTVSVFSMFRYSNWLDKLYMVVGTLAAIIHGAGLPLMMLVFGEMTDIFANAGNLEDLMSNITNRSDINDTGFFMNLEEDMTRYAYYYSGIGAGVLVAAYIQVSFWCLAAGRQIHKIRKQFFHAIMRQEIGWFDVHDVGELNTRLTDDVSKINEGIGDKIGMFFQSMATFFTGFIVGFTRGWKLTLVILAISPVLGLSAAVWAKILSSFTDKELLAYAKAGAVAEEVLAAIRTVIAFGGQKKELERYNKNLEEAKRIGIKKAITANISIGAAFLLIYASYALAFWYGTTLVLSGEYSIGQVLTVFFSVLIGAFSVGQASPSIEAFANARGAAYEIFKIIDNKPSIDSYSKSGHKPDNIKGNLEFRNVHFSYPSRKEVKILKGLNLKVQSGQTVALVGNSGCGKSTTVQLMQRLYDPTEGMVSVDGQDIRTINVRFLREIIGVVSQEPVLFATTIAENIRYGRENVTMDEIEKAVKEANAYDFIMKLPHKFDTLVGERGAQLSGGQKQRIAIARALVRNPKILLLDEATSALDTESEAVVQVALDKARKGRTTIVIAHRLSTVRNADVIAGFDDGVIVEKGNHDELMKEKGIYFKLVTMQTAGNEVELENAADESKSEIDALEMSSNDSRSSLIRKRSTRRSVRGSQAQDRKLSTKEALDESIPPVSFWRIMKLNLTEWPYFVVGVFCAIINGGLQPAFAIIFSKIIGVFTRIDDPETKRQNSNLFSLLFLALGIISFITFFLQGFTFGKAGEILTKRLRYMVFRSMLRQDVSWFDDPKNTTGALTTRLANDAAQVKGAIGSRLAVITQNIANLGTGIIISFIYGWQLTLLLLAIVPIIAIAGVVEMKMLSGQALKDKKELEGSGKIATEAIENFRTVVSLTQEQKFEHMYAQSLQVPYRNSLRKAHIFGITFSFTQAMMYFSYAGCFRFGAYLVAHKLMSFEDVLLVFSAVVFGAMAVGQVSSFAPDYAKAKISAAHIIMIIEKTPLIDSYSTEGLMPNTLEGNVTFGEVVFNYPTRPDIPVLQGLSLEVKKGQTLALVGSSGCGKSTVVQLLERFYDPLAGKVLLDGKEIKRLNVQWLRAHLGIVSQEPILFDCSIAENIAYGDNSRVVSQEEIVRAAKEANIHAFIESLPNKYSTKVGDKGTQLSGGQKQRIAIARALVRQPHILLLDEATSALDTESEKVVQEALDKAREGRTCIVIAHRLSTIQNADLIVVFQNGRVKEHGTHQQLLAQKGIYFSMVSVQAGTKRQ
row,SMILES,Activity
1,COc1cccc2c1C(=O)c1c(O)c3c(c(O)c1C2=O)C[C@@](O)(C(=O)CO)C[C@@H]3O[C@H]1C[C@H](N)[C@H](O)[C@H](C)O1 [DOXORUBICIN],substrate [+]
2,C/C=C/C[C@@H](C)C(=O)[C@H]1C(=O)N[C@@H](C(C)C)C(=O)N(C)CC(=O)N(C)[C@@H](CC(C)C)C(=O)N[C@@H](C(C)C)C(=O)N(C)[C@@H](CC(C)C)C(=O)N[C@@H](C)C(=O)N[C@H](C)C(=O)N(C)[C@@H](CC(C)C)C(=O)N(C)[C@@H](CC(C)C)C(=O)N(C)[C@@H](C(C)C)C(=O)N1C [VALSPODAR],is not a substrate [-]
